{
  "source": "patent US20160097044A1",
  "about": "“Antimicrobial Enzyme Fusions Reduce Resistance and Kill Intracellular Staphylococcus aureus” (The United States of America, as Represented by the …, priority 2014, published 2016)",
  "key": {"[1]": {"test_system": "intracellular S. aureus strain ISP479C in human brain microvascular endothelial cells (hBMEC)", "experiment": "Intracellular S. aureus eradication assay in hBMEC", "type": "cell-based", "settings": "5 μg/ml, 1 h", "description": "FIGS. 5a-5e depict peptidoglycan hydrolase-protein transduction domain (PGH-PTD) eradication of intracellular S. aureus in cultured cells. Cultured cells were infected, treated with gentamicin to kill extracellular S. aureus, and then treated with the peptidoglycan hydrolases indicated. All results are standardized to the gentamicin (GENT) only control. Nomenclature of the peptidoglycan hydrolase constructs is as in FIG. 1. Asterisks indicate statistical significance detected with single factor ANOVA (α=0.05) with paired t-test posthoc analyses α=0.05 adjusted with Sidák correction for multiple comparisons (for all cases p<0.01). […] Error bars represent SEM. […] Yellow staining in the combined panel represents intracellular co-localization (in a single plane as determined by z-stack analysis) of both S. aureus and K-L-PTD1 (blue arrow). […]\nThree similar intracellular S. aureus eradication assays from three different labs were optimized for (A) a cultured bovine mammary epithelial cell line (MAC-T, Nexia Biotechnologies, Quebec, Canada; Almeida, supra), (B) primary C57BL/6 mouse-derived osteoblasts (mOBs) (McCall et al. 2008. J. Bone Miner. Res. 23: 30-40) or (C) human brain microvascular endothelial cells (hBMEC; Stins, supra). […] The cell lysate was subjected to serial dilution plating, and the resultant CFUs were counted and normalized to the gentamicin control for each assay. […]"}, "[2]": {"test_system": "S. aureus strain ALR", "experiment": "Rat nasal colonization model", "type": "in vivo, Wistar rats", "description": "FIGS. 1a-1c depict peptidoglycan hydrolase construct schematics, resistance development and effectiveness in eradicating S. aureus carriage in a rat colonization model. FIG. 1a is a schematic of the peptidoglycan hydrolase constructs. Domains: CHAP endopeptidase (CHAP, red box); N-acetylmuramoyl-L-alanine amidase (AMID, green box); M23 endopeptidase (PEP, blue oval); CBDs (LysK SH3b, gold diamond; lysostaphin SH3b, gold diamond with dot); protein transduction domain (PTD, blue circle); hexahistidine purification tag (His6). Domains are not to scale. Specific peptidoglycan cut sites are illustrated in FIG. 3a. FIG. 1b depicts in vitro antimicrobial resistance development. Engineered triple fusions K-L and L-K suppress antimicrobial resistance development compared to LysK (K), lysostaphin (L), or a combination of equimolar concentrations of both (L+K). Changes in Minimum Inhibitory Concentrations (MIC) are depicted as a fold-change at the tenth round of sublethal exposure compared to the first exposure, with the average fold-change of 4 replicates in red. Error bars=SEM. First exposure MICs: Lysostaphin, 0.77 μg/ml (27 nM); LysK, 47 μg/ml (840 nM); Lysostaphin and LysK (L+K) in combination 0.2 μg/ml (7 nM and 3 nM, respectively); triple fusion K-L, 7 μg/ml (97 nM); triple fusion L-K, 7.8 μg/ml (107 nM). FIG. 1c depicts reduction in colonization in a rat nasal carriage model. Rats were inoculated with S. aureus strain ALR on Day 1. After 5 days, the rats were treated twice daily for 3 days with 20 μl of a 10 mg/ml solution of each enzyme. The rat noses were excised on day 10, homogenized, and quantitative cultures were performed. Each point represents the CFU recovered from an individual rat. Bars indicate the median CFU/nose recovered from treated rats. […] Data were compiled from five independent experiments. Lyso=commercially purchased lysostaphin (AMBI, Tarrytown, N.Y.). Statistical comparisons were made with the Mann-Whitney test. SEQ ID NOs of depicted peptidoglycan hydrolase constructs: Lysostaphin (SEQ ID NO:1); Lysostaphin-PTD1-4, 6-12 (SEQ ID NOs:9, 11, 13, 15, 17, 19, 21, 23, 25, 27, 29, respectively); LysK (SEQ ID NO:3); LysK-PTD1-11 (SEQ ID NOs: 31, 33, 35, 37, 39, 41, 43, 45, 47, 49, 51, respectively); LysK-Lysostaphin Fusion K-L (SEQ ID NO:5); K-L-PTD1-4, 6-11 (SEQ ID NOs:53, 55, 57, 59, 61, 63, 65, 67, 69, 71, respectively); Lysostaphin-LysK Fusion L-K (SEQ ID NO:7).\nReduction in nasal colonization was observed when rats were challenged on day 0 with 10^7 CFU S. aureus strain ALR and then treated twice per day on days 5, 6, and 7 with 10 μl of 2% mupirocin calcium ointment (Bactroban Nasal) or petrolatum/softisan placebo. Noses from rats were homogenized and cultured quantitatively on day 10. Each point represents the CFU recovered from an individual rat, and the data were compiled from two independent experiments. Data were analyzed by the Mann-Whitney test, and horizontal lines represent median values. Mupirocin reduced colonization ˜98% compared to the placebo control.\nThe rat nasal colonization model is an adaptation of the mouse nasal colonization model that we described previously (Schaffer et al. 2006. Infect. Immun. 74:2145-2153). All animal experiments were conducted in accordance with a protocol approved by the appropriate Institutional Animal Care and Use Committees. Wistar rats (5 to 6 wks of age) were obtained from Charles River Laboratories (Wilmington, Mass.) and given food and water ad libitum. The animals were housed two per cage in a modified barrier facility under viral antibody-free conditions. The rats were given drinking water containing streptomycin sulfate (0.5 g/liter; Sigma) 1 day prior to bacterial inoculation and for the course of the experiment. The drinking water and cages were changed three times per week. […]"}, "[3]": {"test_system": "S. aureus strain Newman", "type": "cell-based", "settings": "tenth round compared to first exposure", "procedure": "For the MIC repeated exposure method, MIC determinations were performed with S. aureus strain Newman. 100 μl of S. aureus strain Newman culture that survived at ½ the MIC (the first well with visible growth) for each round was inoculated into 5 ml TSB and cultivated to mid-log phase growth. This culture was used as the inoculum for the next round of MIC exposure (overnight growth), and the cycle was repeated for 10 rounds.\nDevelopment of resistance to the triple-acting fusion enzymes was tested on S. aureus strain Newman and compared to both parental enzymes applied individually or simultaneously. […] Survivors of the ten round exposure to peptidoglycan hydrolase were passaged five times in medium with no peptidoglycan hydrolase added. […] We compared our triple-acting fusions to small molecule antibiotics in similar assays."}, "[4]": {"test_system": "S. aureus Newbould 305", "experiment": "Murine model of mastitis, bacterial load", "type": "in vivo, C57BL6/SJL mice", "settings": "single 1.25 nmoles intramammary infusion 30 minutes post infection, 18 h", "procedure": "(§1) FIG. 6a depicts the specific activity of peptidoglycan hydrolase fusion constructs in vitro in a turbidity reduction assay with S. aureus Newbould 305 resuspended in lysis buffer to an OD600nm of 1.0 and treated with 1 μM final concentrations of each peptidoglycan hydrolase. The maximum specific activity for three experiments are represented as an average with SEM error bars. FIG. 6b depicts the bacterial burden in mice with mastitis treated with recombinant peptidoglycan hydrolases. Colony Forming Units (CFUs) from infected murine mammary glands following a single treatment with 50 μl of 25 μM peptidoglycan hydrolase (1.25 nmol). Each data point represents the average of duplicate bacterial platings. The horizontal bars represent the average CFU/mg for each group. FIG. 6c illustrates the TNFα response in mice with mastitis that were treated with peptidoglycan hydrolases. Data represents a minimum of 7 measurements in duplicate. Log TNFα was used for statistical analysis. Single asterisks indicate a significant difference from buffer control (p<0.05); double asterisks indicate a significant difference from the parental enzyme (p<0.05).\nTo evaluate the efficacy of purified, individually administered peptidoglycan hydrolases in a murine model of bovine mastitis, female C57BL6/SJL mice were challenged by the intramammary route with 100 CFU S. aureus Newbould 305 in 50 μl buffer. A single 1.25 nmoles intramammary infusion of each desired peptidoglycan hydrolase (50 μl of a 25 μM solution) or 50 μl PBS was given 30 minutes post infection [with up to six glands treated per animal, each gland receiving a unique treatment] as described earlier (Schmelcher et al. 2012. Appl. Environ. Microbiol. 78:2297-2305; Kerr et al. 2001. Nat. Biotechnol. 19:66-70). Dams were euthanized 18 h post infusion, the mammary glands were aseptically dissected, and portions of the gland were used for determination of bacterial load and TNFα concentrations, as described previously (Schmelcher et al., supra).\nStatistical analysis: The variables were analyzed as two-factor mixed models with Treatment as the factor and Mouse as random Blocks. This model […] within mouse correlations. Log(TNFα) was used. The variance grouping technique was used for log CFU and log TNFα to correct for variance heterogeneity. Means comparisons were done with Sidak adjusted p-values so that the experiment-wise error was 0.05. Log(TNFα) is back-transformed to the original units for graphing."}, "[5]": {"test_system": "S. aureus Newbould 305", "experiment": "Turbidity reduction assay", "type": "cell-based", "settings": "1 μM enzyme, cells at OD600nm 1.0, FIG. 6a", "procedure": "as §1\nFIG. 7 depicts a turbidity reduction assay of select peptidoglycan hydrolases against S. aureus Newbould 305. Bacterial cells were resuspended in lysis buffer to an OD600nm of 1.0 and lysed with 1 μM final concentrations of each peptidoglycan hydrolase. The maximum rate of ΔOD of three experiments are represented as an average with error bars representing SEM. Double asterisks indicate significant difference from parental. Mean comparisons were performed with one way ANOVA (P=3.3×10^−5) with t test post hoc analysis with Sidák adjusted alpha (p<0.01)."}},
  "data": [
    {"compound": "1-PTD12: lysostaphin with PTD 12 (TAT 49-57); SEQ ID NO:29", "values": [
      {"measurement": "intracellular S. aureus CFUs relative to gentamicin only control", "setting": "[1]", "value": "reduce the intracellular S. aureus strain ISP479C"}
    ]},
    {"compound": "C/C(=C\\C(=O)OCCCCCCCCC(=O)O)C[C@@H]1OC[C@H](C[C@@H]2O[C@H]2[C@@H](C)[C@H](C)O)[C@@H](O)[C@H]1O", "note": "[Mupirocin, mupirocin, reference compound]", "values": [
      {"measurement": "reduction in nasal colonization compared to placebo control", "setting": "[2]; 10 μl of 2% mupirocin calcium ointment twice per day on days 5, 6, 7, separate experiment", "value": 98, "unit": "%"}
    ]},
    {"compound": "[H]/N=C(/N)N[C@H]1[C@H](O)[C@@H](O)[C@H](O[C@@H]2O[C@@H](C)[C@](O)(C=O)[C@H]2O[C@@H]2O[C@@H](CO)[C@H](O)[C@@H](O)[C@@H]2NC)[C@@H](N/C(N)=N\\[H])[C@@H]1O", "note": "[streptomycin, reference compound]", "values": [
      {"measurement": "increase in MIC after 10 rounds of sub-lethal exposure", "setting": "[3]", "value": 13, "unit": "fold"}
    ]},
    {"compound": "L-PTD9: lysostaphin with PTD 9 (TAT 48-60); SEQ ID NO:23", "values": [
      {"measurement": "bacterial load / clearance of mammary glands (in words)", "setting": "[4]", "value": "capable of reducing bacterial load within the mouse mammary glands relative to the PBS buffer control"},
      {"measurement": "turbidity reduction (in vitro lytic) activity", "setting": "[5]", "value": "virtually inactive"},
      {"measurement": "turbidity reduction (in vitro lytic) activity", "setting": "[5]; listed as 1-PTD9", "value": "reduced the in vitro activity"}
    ]},
    {"compound": "Trimethoprim/sulfamethoxazole [reference compound]", "values": [
      {"measurement": "increase in MIC after 10 rounds of sub-lethal exposure", "setting": "[3]", "value": 6, "unit": "fold"}
    ]},
    {"compound": "lysostaphin (AMBI, Tarrytown, N.Y.): commercially purchased lysostaphin (AMBI, Tarrytown, N.Y.)", "values": [
      {"measurement": "decrease in CFU/nose (nasal colonization) compared to rats treated with buffer", "setting": "[2]; 200 μg intranasally twice a day on days 5, 6, 7, noses cultured day 10", "value": 87, "unit": "%"}
    ]}
  ]
}
